Eleven compounds from publication PMC4834639, “Steroid binding to Autotaxin links bile salts and lysophosphatidic acid signalling” (Nature Communications, 2016) can be followed below.

In general, IC50 refers to the concentration at which inhibition is half-maximal. The low end stands for inhibition by little substance, the high end for a need for much substance.

Experiment [1] deals with T1, hATX (Homo sapiens, UniProt Q13822).
Method: (§1) All biochemical studies were performed with hATX. ATX lysoPLD activity was measured by choline release from LPC[47]. […] The relative amount of released choline was measured by HVA fluorescence in a 96-well plate (Corning). Fluorescent intensity was determined at λex/λem=320/450 nm every 30 s for 90 min with a Fluorostar plate reader (BMG Labtech). Data analysis was performed using GraphPad Prism.
(§2) The experiments for determining IC50 for different bile salt inhibitors were performed by adding the named bile salt and performing serial threefold dilutions; for each bile salt concentration, the velocity of the reaction was monitored as a function of time in the lysoPLD assay as described above.
(§3) For initial comparison between competitive, uncompetitive and non-competitive inhibition by TUDCA, using the LPC and the FS3 assays, we measured the relative velocity for increasing LPC or FS3 substrate concentrations, for no-inhibitor and for three different inhibitor concentrations. The relative velocity for each data point was measured by linear regression as described above, and a Michaelis–Menten curve was created for each inhibitor concentration. We then used the following equations to describe each mode of inhibition:
(§4) where in addition to previous definitions that can be derived from equations (4–6), we define Part as the partiality of the inhibition and α as an estimated constant that determines mechanism: if α=1, the formula becomes identical to equation (4) and the inhibition mode is noncompetitive; if a is very large, then the model approaches a competitive model equation (3); if a is very small but greater than zero, the model approaches an uncompetitive model.
(§5) This procedure allowed a more robust fit to determine all parameters from all available experiments.
(§6) All modelling was performed using the regression analysis tools within the Graphpad/Prism software. The values of all derived parameters indicate mean values as obtained by nonlinear regression analysis using the formulas listed above; triplicate data were used as separate observations during the fit; ±values indicate the standard error of the mean.
The target of experiment [2] is T1, hATX. Description: Mass spectrometry analysis of sterols associated with recombinant ATX preparation. Also on record: made in house; host or cells: HEK 293 Flp-In cells. The following applies: for amount found in ATX preparation: representative ATX preparation containing 2.4 pmol ATX; for Ratio to ATX: representative ATX preparation, ATX = 1.0. As to the method: Recombinant hATX preparations or buffer controls were extracted using acidified organic solvents as reported previously for lipid extractions from cells and tissues[45] with inclusion of deuterium-labelled cholesterol of oxysterol internal standards as detailed below. Samples were evaporated to dryness and reconstituted in methanol for mass spectrometry analysis.
Cholesterol and hydroxysterols were analysed using an AB Sciex 4000-Qtrap hybrid linear ion trap triple quadrupole mass spectrometer in multiple reaction monitoring mode connected to a Shimadzu HPLC. Cholesterol was analysed in positive multiple reaction monitoring mode using a Machery Nagel Nucleodur C8 gravity column, 5 μm, 125 × 2 mm^2 with a flow rate of 0.5 ml min^−1. Solvent A consists of 75/25 of methanol/water with 0.5% formic acid and 0.1% 5 mM ammonium formate and solvent B consists of 99/1 of methanol/water with 0.5% formic acid and 0.1% 5 mM ammonium formate. The cholesterol measurements were conducted exactly as reported previously with quantification accomplished by reference to a deuterated internal standard. Oxysterols were measured after dimethylglycine (DMG) derivatization using an Agilent Zorbax Eclipse XDB-C18 column, 5 μm, 4.6 × 150 mm^2 with a flow rate of 0.5 ml min^−1. Solvent A was 85% methanol with 5 mM ammonium acetate and solvent B consisted of 80:20:2 of chloroform/water/50 mM ammonium acetate. In brief, we obtained authentic standards for 25-, 24-, 27, 7-α and 4-β OH cholesterol and deuterated 25-OH cholesterol and prepared DMG derivatives exactly as previously described. We obtained product ion spectra from the doubly and singly charged DMG derivatives of these compounds that were essentially identical to those reported previously with some differences in product ion abundances that are likely attributable to differences between our mass spectrometer system and that used by Jiang et al.[46]. […] Quantification of oxysterols was accomplished by reference to the deuterated 25-OH cholesterol internal standard as explained below.
Cholesterol was detected in all ATX preparations analysed.
As reported by Jiang et al.[46], bis-DMG derivatives of hydroxylated cholesterol generate doubly charged molecular ions (m/z=287.3), which fragment to produce protonated DMG (m/z=104.1) and production of singly charged mono-DMG derivative ions (m/z=367.2). […] Accordingly, we established a selected ion-monitoring mode HPLC LC MS/MS assay that monitored these ion pairs. […] Quantification was accomplished by comparing the integrated peak area for the […]/104.1 ion pair to that of the corresponding ion pair from the deuterated 25-OH cholesterol internal standard. That ATX preparation analysed contained 1.48 pmol of 7-OH cholesterol.

Experiment [3] deals with T1, hATX. Description: biochemical.
Method: as §1, §2, §3, §4, §5, §6
Experiment [4] concerns ATX-mediated LPAR1 endocytosis in HeLa cells. Description: LPA1 receptor internalization assay in GFP-LPA1-transfected HeLa cells. As to conditions: 0.1 μM LPC, 5 nM ATX, 500 μM TUDCA, 15 min, P<0.001.
Method: HeLa cells (obtained from American Type Culture Collection) were grown in DMEM supplemented with 10% fetal bovine serum at 37 °C under 5% CO2. For LPA1 internalization studies, HeLa cells were transient transfected with GFP-LPA1 plasmid using X-tremeGene 9 (Roche) reagent according to the manufacturer's instructions. At 10 h after transfection, the cells were rinsed with SF-DMEM and incubated in the same medium for 16–24 h before further treatments. […] Slides were examined on a Leica TCS-SP5 confocal microscope (× 62 objective) and analysed using ImageJ software.
The mark [5] stands for this setting: LPC(18:1) substrate, result in words.

“Also recorded” adds a separate entry of the source. Where two headings read alike, the source gives them in different places.

Consider `CC(C)CCC[C@@H](C)[C@H]1CC[C@H]2[C@@H]3[C@H](O)C=C4C[C@@H](O)CC[C@]4(C)[C@H]3CC[C@]12C` [7HCS, 7α-hydroxycholesterol], for which the “effect on ATX-mediated LPC hydrolysis” value at hATX [1] (setting [5]) is “no effect”. For the same compound, at hATX [2], the “amount found in ATX preparation” value was 1.48 pmol and the “Ratio to ATX” value was determined as 0.62.

For `CC(C)CCC[C@@H](C)[C@H]1CC[C@H]2[C@@H]3CC=C4C[C@@H](O)CC[C@]4(C)[C@H]3CC[C@]12C` [Cholesterol], on hATX [2], the “amount found in ATX preparation” value was 0.35 pmol and the “Ratio to ATX” value came out at 0.15.

With `C[C@H](CCCC(C)(C)O)[C@H]1CC[C@H]2[C@@H]3[C@H](O)C=C4C[C@@H](O)CC[C@]4(C)[C@H]3CC[C@]12C` [DHCS, 7α,25-Dihydroxycholesterol], the “effect on ATX-mediated LPC hydrolysis” value at hATX [1] (setting [5]) was “no effect”. The same compound returned an IC50 on hATX [3] above 1000 µM.

As for `C[C@H](CCC(=O)NCC(=O)O)[C@H]1CC[C@H]2[C@@H]3[C@H](O)C[C@@H]4C[C@H](O)CC[C@]4(C)[C@H]3CC[C@]12C` [GCDCA, Glycochenodeoxycholic acid], on hATX [1] (setting [5]), the “effect on ATX-mediated LPC hydrolysis” value was “did not significantly change potency”. The same compound displayed an IC50 against hATX [3] of 8.1 ± 0.7 µM.

Consider `C[C@H](CCC(=O)NCCS(=O)(=O)O)[C@H]1CC[C@H]2[C@@H]3[C@H](O)C[C@@H]4C[C@H](O)CC[C@]4(C)[C@H]3C[C@H](O)[C@]12C` [TCA, Taurocholic acid], for which the “effect on ATX-mediated LPC hydrolysis” value on hATX [1] was “abrogate the inhibitory activity”. On hATX [3], this compound showed an IC50 above 1000 µM.

For `C[C@H](CCC(=O)NCCS(=O)(=O)O)[C@H]1CC[C@H]2[C@@H]3CC[C@@H]4C[C@H](O)CC[C@]4(C)[C@H]3C[C@H](O)[C@]12C` [TDCA, Taurodeoxycholic acid], the “effect on ATX-mediated LPC hydrolysis” value on hATX [1] (setting [5]) is given as “abrogate the inhibitory activity”. On hATX [3], this compound had an IC50 above 1000 µM.

With `C[C@H](CCC(=O)NCCS(=O)(=O)O)[C@H]1CC[C@H]2[C@@H]3[C@@H](O)C[C@@H]4C[C@H](O)CC[C@]4(C)[C@H]3CC[C@]12C` [TUDCA, Tauroursodeoxycholic acid], the “ATX-mediated LPAR1 endocytosis (number of GFP-LPA1 endosomes)” value in experiment [4] is “reduces ATX-mediated LPAR1 endocytosis; also recorded: reduces the number of endosomes”.

For the compound `C[C@H](CCC(=O)O)[C@H]1CC[C@H]2[C@@H]3[C@@H](O)C[C@@H]4C[C@H](O)CC[C@]4(C)[C@H]3CC[C@]12C` [UDCA, Ursodeoxycholic acid], 8.8 ± 0.5 µM corresponded to half-maximal inhibition at hATX [3] (IC50).

Take `C[C@@H]1C[C@H]2[C@@H]3CCC4=CC(=O)C=C[C@]4(C)[C@@]3(F)[C@@H](O)C[C@]2(C)[C@@]1(O)C(=O)CO` [dexamethasone]: on hATX [1] (setting [5]), the “effect on ATX-mediated LPC hydrolysis” value was “no effect”.

For the compound `C[C@]12C=CC(=O)C=C1CC[C@@H]1[C@@H]2[C@@H](O)C[C@@]2(C)[C@H]1CC[C@]2(O)C(=O)CO` [prednisolone], the “effect on ATX-mediated LPC hydrolysis” value at hATX [1] (setting [5]) is reported as “no effect”.

With `C[C@]12CC[C@H]3[C@@H](CCC4=CC(=O)CC[C@@]43C)[C@@H]1CC[C@@H]2O` [testosterone], on hATX [1] (setting [5]), the “effect on ATX-mediated LPC hydrolysis” value is given as “no effect”.
